How the values were obtained:
[1] = system: alcohol dehydrogenase (ADH); assay: ADH inhibitory activity, NAD/ethanol, absorbance at 340 nm; type: biochemical; conditions: final concentration 10.8 μg/ml (IC50 for AR activity)
Description: Next, 2,5-dihydroxytetrahydro-2-furancarboxylic acid was added to an ADH reaction system to determine the ADH inhibitory activity.
A commercially available lyophilized product (Nacalai Tesque, code 012-83) was dissolved in water for use as ADH. NAD (Nacalai Tesque) as a hydrogen donor and ethanol (Nacalai Tesque) as a substrate for the enzyme were used.
The ADH activity was measured as follows.
50 μl of water, 20 μl of 3 mM aqueous NAD solution and 10 μl of enzyme solution were added to 100 μl of 200 mM phosphate buffer (pH 6.2). 10 μl of sterile pure water was further added to the mixture. After 10 μl of 60% ethanol was added thereto, the change in absorbance at 340 nm was monitored at room temperature for 3 minutes. The enzymatic activity was determined on the basis of the change in absorbance per minute.
Next, aqueous solution of 2,5-dihydroxytetrahydro-2-furancarboxylic acid at a final concentration of 10.8 μg/ml and sterile pure water were added to the reaction system as described above in place of 10 μl of sterile pure water. The enzymatic activity was then determined as described above. The ADH enzymatic activity inhibition rate was calculated according to the above-mentioned equation based on the enzymatic activity.

Aldose reductase (AR) = target: T1, Aldose reductase (AR) (Homo sapiens, UniProt P15121); assay: AR (aldose reductase) inhibitory activity, NADPH/methylglyoxal, absorbance at 340 nm; type: biochemical
T1 construct: purchased Wako Pure Chemical Industries 012-13991
Description: 2,5-dihydroxytetrahydro-2-furancarboxylic acid was added to an AR reaction system to determine the AR inhibitory activity.
NADPH (Nacalai Tesque) as a hydrogen donor and methylglyoxal (Nacalai Tesque) as a substrate for the enzyme were used. A commercially available enzyme solution (Wako Pure Chemical Industries, code 012-13991) was diluted. for use as AR.
The AR activity was measured as follows.
40 μl of sterile pure water, 20 μl of 1 mM aqueous NADPH solution and 10 μl of enzyme dilution were added to 100 μl of 200 mM phosphate buffer (pH 6.2). 10 μl of sterile pure water was further added to the mixture. After 20 μl of 100 mM aqueous methylglyoxal solution was added thereto, the change in absorbance at 340 nm was monitored at room temperature for 3 minutes. The enzymatic activity was determined on the basis of the change in absorbance per minute. Next, aqueous solution of 2,5-dihydroxytetrahydro-2-furancarboxylic acid at a varying concentration was added to the reaction system as described above in place of 10 μl of sterile pure water. The enzymatic activity was then determined as described above.
The AR inhibitory activity of 2,5-dihydroxytetrahydro-2-furancarboxylic acid was determined based on the enzymatic activity inhibition rate calculated according to the following equation:
Enzymatic activity inhibition rate (%)={1-(enzymatic activity with the addition of aqueous 2,5-dihydroxytetrahydro-2-furancarboxylic acid solution)/(enzymatic activity with the addition of water)}×100.

ADH activity inhibition rate [1]: 7.1%
IC50 (Aldose reductase (AR); calculated from concentration and AR activity inhibition rate of Table 1, read-out: concentration in the enzymatic reaction mixture that results in the activity inhibition rate of 50% (IC50), AR (converted)): ~72.9 µM
Activity inhibition rate (AR) (Aldose reductase (AR); concentration in enzymatic reaction system 0.5 μg/ml): 8.1%
Activity inhibition rate (AR) (Aldose reductase (AR); concentration in enzymatic reaction system 5 μg/ml): 34.8%
Activity inhibition rate (AR) (Aldose reductase (AR); concentration in enzymatic reaction system 50 μg/ml): 81.6%
Activity inhibition rate (AR) (Aldose reductase (AR); concentration in enzymatic reaction system 500 μg/ml): 96.3%
SMILES: O=C(O)C1(O)CCC(O)O1 (stereo not drawn) [2,5-dihydroxytetrahydro-2-furancarboxylic acid]
